Data as given in patent publication US6194416A, “Heterocyclic compounds and their use” (Eli Lilly and Company, priority 1997, dated 2001).

Experiments:
[1] = molecular target: muscarinic acetylcholine receptors; assay: Inhibition of specific binding of 3H-Oxotremorine-M (3H-Oxo) to rat cortex membranes; parameters: species or system male Wistar rats; details: 1.0 nM 3H-Oxotremorine, 30 min, 25° C., pH 7.4
Description: The pharmacological properties of the compounds of the invention can be illustrated by determining their capability to inhibit the specific binding of ^3 H-Oxotremorine-M (^3 H-Oxo). Birdsdall N. J. M., Hulme E. C., and Burgen A. S. V. (1980). "The Character of Muscarinic Receptors in Different Regions of the Rat Brain". Proc. Roy. Soc. London (Series B) 207,1.
^3 H-Oxo labels muscarinic receptor in the CNS (with a preference for agonist domains of the receptors). Three different sites are labeled by ^3 H-Oxo. […] Using the present experimental conditions only the high and medium affinity sites are determined.
The inhibitory effects of compounds on ^3 H-oxo binding reflects the affinity for muscarinic acetylcholine receptors.
(§1) All preparations are performed at 0-4° C. unless otherwise indicated. Fresh cortex (0.1-1 g) from male Wistar rats (150-250 g) is homogenized for 5-10 s in 10 mL 20 nM Hepes pH: 7.4, with an Ultra-Turrax homogenizer. The homogenizer is rinsed with 10 mL of buffer and the combined suspension centrifuged for 15 min. at 40,000×g. The pellet is washed three times with buffer. In each step the pellet is homogenized as before in 2×10 mL of buffer and centrifuged for 10 min. at 40,000×g.
The final pellet is homogenized in 20 mM Hepes pH: 7.4 (100 mL per g of original tissue) and used for binding assay. Aliquots of 0.5 mL is added 25 μL of test solution and 25 μL of ^3 H-Oxotremorine (1.0 nM, final concentration) mixed and incubated for 30 min. at 25° C. Non-specific binding is determined in triplicate using arecoline (1 μg/mL, final concentration) as the test substance. After incubation samples are added 5 mL of ice-cold buffer and poured directly onto Whatman GF/C glass fiber filters under suction and immediately washed 2 times with 5 mL of ice-cold buffer. The amount of radioactivity on the filters are determined by conventional liquid scintillation counting. Specific binding is total binding minus non specific binding.
Test substances are dissolved in 10 mL water (if necessary heated on a steam-bath for less than 5 min.) at a concentration of 2.2 mg/mL. 25-75% inhibition of specific binding must be obtained before calculation of IC50. The test value will be given as IC50 (the concentration (nM) of the test substance which inhibits the specific binding of ^3 H-oxo by 50%). IC50 =(applied test substance concentration) x([…])nM where Co is specific binding in control assays and Cx is the specific binding in the test assay. (The calculations assume normal mass-action kinetics).

[2] = molecular target: T1, muscarinic receptors (M1-site, pirenzepine sensitive site) (Rattus norvegicus, UniProt P08482); assay: Inhibition of 3HPRZ (pirenzepine, [N-methyl-3H]) binding to rat cerebral cortex membranes; parameters: species or system male Wistar rats; details: rat cerebral cortex, 1.0 nM 3HPRZ, 60 min, 20° C., pH 7.4; read-out: 3HPRZ IC50
T1 construct: from tissue; host or cells: cerebral cortex membranes of male Wistar rats
T1 sequence (P08482 1-460): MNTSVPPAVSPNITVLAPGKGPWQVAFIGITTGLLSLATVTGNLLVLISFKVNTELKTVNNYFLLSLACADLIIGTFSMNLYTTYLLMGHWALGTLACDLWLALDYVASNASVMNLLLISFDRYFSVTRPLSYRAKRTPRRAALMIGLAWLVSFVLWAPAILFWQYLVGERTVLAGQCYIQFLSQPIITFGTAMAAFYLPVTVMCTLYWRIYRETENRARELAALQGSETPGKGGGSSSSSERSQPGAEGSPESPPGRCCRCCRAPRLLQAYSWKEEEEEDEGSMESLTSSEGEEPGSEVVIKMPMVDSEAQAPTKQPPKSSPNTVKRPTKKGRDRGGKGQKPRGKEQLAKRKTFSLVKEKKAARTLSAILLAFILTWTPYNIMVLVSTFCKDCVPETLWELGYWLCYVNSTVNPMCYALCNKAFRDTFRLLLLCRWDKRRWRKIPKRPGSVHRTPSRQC
Protocol: Furthermore the pharmacological properties of the compounds of the invention can also be illustrated by determining their capability to inhibit ^3 HPRZ (pirenzepine, [N-methyl-^3 H]) binding to rat cerebral cortex membranes.
Pirenzepine binds selectively to subtype of muscarinic receptors. Historically the type is named the M1 -site, whereas pirenzepine sensitive site would be more appropriate.
as §1, with “cortex ([…])” for “cortex (0.1-1 g)”, “rats (150-200” for “rats (150-250”, “20 mM” for “20 nM”, “with 2×10” for “with 10”, “in 3×10” for “in 2×10”
The final pellet is homogenized in 20 MM Hepes pH: 7.4 (100 mL per g of original tissue) and used for binding assay. Aliquots of 0.5 mL is added 20 μL of test solution and 25 μL of ^3 HPRZ (1.0 nM, final conc.), mixed and incubated for 60 min. at 20° C. Non-specific binding is determined in triplicate using atropine (1.0 μg/mL, final conc.) as the test substance. After incubation samples are added 5 mL of ice-cold buffer and poured directly onto Whatman GF/C glass fiber filters under suction and immediately washed 2 times with 5 mL of ice-cold buffer.
The amount of radioactivity on the filters are determined by conventional liquid scintillation counting. Specific binding is total binding minus non-specific binding.
Test substances are dissolved in 10 mL water, at a concentration of 0.22 mg/mL. 25-75% inhibition of specific binding must be obtained before calculation of IC50.
The test value will be given as IC50 (the concentration (nM) of the test substance which inhibits the specific binding of ^3 HPRZ by 50%). IC50 =(applied test substance concentration) x(Cx /Co -Cx)nM where Co is specific binding in control assays and Cx is the specific binding in the test assay. (The calculations assume normal mass-action kinetics).

nicotinic receptors = assay: Nicotinic channel receptor binding: [3H]-cystine binding to crude synaptic membranes from whole rat brain; details: 1.25 nM [3H-cystine], about 60 min, about 4° C.
Protocol: Nicotinic Channel Receptor Binding Protocol:
The activity of the compounds claimed herein at the nicotinic receptor can be accomplished by the following assay.
Binding of […] to nicotinic receptors was accomplished using crude synaptic membrane preparations from whole rat brain (Pabreza et al. Molecular Pharmacol., 1990, 39:9). Washed membranes were stored at about -80° C. prior to use. Frozen aliquots were slowly thawed and resuspended in 20 volumes of buffer (containing: […] NaCl, 5 mM KCl, 2 mM MgCl2, 2 mM Tris-Cl, ph 7.4 @4° C.). After centrifuging at 20,000×g for 15 minutes, the pellets were resuspended in about 30 volumes of buffer. Homogenate (containing about 125-150 ug protein) was added to tubes containing concentrations of test compound and [^3 H-cystine] (1.25 nM) in a final volume of 500 uL. Samples were incubated for about 60 minutes at about 4° C., then rapidly filtered through GF/B filters presoaked in 0.5% polyethylimine using 3×4 mL of ice cold buffer. The filters were counted.

[3] = test system: M1-sites of muscarinic receptors; details: general statement; cited from earlier work
[4] = test system: M2-sites of muscarinic receptors; details: general statement; cited from earlier work

| SMILES | IC50 [1] | IC50 [2] | Ki (nicotinic receptors) | muscarinic subtype selectivity [3] | interaction with M2-sites [4] |
| --- | --- | --- | --- | --- | --- |
| c1cnc(O[C@H]2CN3CCC[C@@H]2C3)cn1 (relative stereo) [Compound 21, 2-[endo-(+,-)-6-(1-azabicyclo[3.2.1]octyloxy)]-pyrazine] | 26 nM | 123 nM | 130 nM | – | – |
| Clc1cncc(O[C@@H]2CN3CCC[C@H]2C3)n1 (relative stereo) [Compound 22, 6-Chloro-2-[endo-(+,-)-6-(1-azabicyclo[3.2.1]octyloxy)]-pyrazine] | 140 nM | 52 nM | 210 nM | – | – |
| C[N+](C)(C)CCOc1cnccn1 [Compound 27, 2-(2-Trimethylaminoethoxy)pyrazine iodide] | – | – | 110 nM | – | – |
| CN1CCN(CC(=O)N2c3ccccc3C(=O)Nc3cccnc32)CC1 [pirenzepine] | – | – | – | selective for M1 -sites | also interact with M2 -sites |
